Laboratory results taken from patent US10450297B2, “Sulfonyl amide derivatives for the treatment of abnormal cell growth” (Pfizer, Inc., priority 2007, dated 2019).

Target: FAK kinase (catalytic construct FAK(410-689)) (Homo sapiens (Human), UniProt Q05397)
Assay: FAKcd kinase ELISA (inhibition of poly-glu-tyr phosphorylation by FAK(410-689))
Format: biochemical
Settings: 50 μM final ATP

FAK kinase (catalytic construct FAK(410-689)), sequence (Q05397 410-689): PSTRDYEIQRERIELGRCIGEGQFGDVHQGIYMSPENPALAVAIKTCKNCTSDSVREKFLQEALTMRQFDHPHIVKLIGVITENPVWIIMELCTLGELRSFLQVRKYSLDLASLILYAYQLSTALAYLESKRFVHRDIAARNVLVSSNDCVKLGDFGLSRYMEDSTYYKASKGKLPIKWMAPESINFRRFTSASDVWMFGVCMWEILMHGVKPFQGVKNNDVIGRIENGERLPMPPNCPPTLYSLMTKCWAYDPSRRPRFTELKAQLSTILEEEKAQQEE

SMILES	IC50 [nM]
CC(C)NC(=O)c1ccc(Nc2ncc(C(F)(F)F)c(NCc3cccnc3N(C)S(C)(=O)=O)n2)cc1 [Compound 242, N-isopropyl-4-({4-[({2-[methyl(methylsulfonyl)amino]pyridin-3-yl}methyl)amino]-5-(trifluoromethyl)pyrimidin-2-yl}amino)benzamide]	1
CN(CC1CC1)C(=O)c1ccc(Nc2ncc(C(F)(F)F)c(NCc3cccnc3N(C)S(C)(=O)=O)n2)cc1 [Compound 243]	2.1
CN(c1ncccc1CNc1nc(Nc2ccc(C(=O)NCCO)cc2)ncc1C(F)(F)F)S(C)(=O)=O [Compound 244, N-(2-hydroxyethyl)-4-({4-[({2-[methyl(methylsulfonyl)amino]pyridin-3-yl}methyl)amino]-5-(trifluoromethyl)pyrimidin-2-yl}amino)benzamide]	1.11
CC(=O)NCCNC(=O)c1ccc(Nc2ncc(C(F)(F)F)c(NCc3cccnc3N(C)S(C)(=O)=O)n2)cc1 [Compound 245, N-[2-(acetylamino)ethyl]-4-({4-[({2-[methyl(methylsulfonyl)amino]pyridin-3-yl}methyl)amino]-5-(trifluoromethyl)pyrimidin-2-yl}amino)benzamide]	2.62
CN(c1ncccc1CNc1nc(Nc2ccc(C(=O)NCC3(O)CCC3)cc2)ncc1C(F)(F)F)S(C)(=O)=O [Compound 246, N-[(1-hydroxycyclobutyl)methyl]-4-({4-[({2-[methyl(methylsulfonyl)amino]pyridin-3-yl}methyl)amino]-5-(trifluoromethyl)pyrimidin-2-yl}amino)benzamide]	0.6
CN(c1ncccc1CNc1nc(Nc2ccc(C(=O)N3CCCC(O)C3)cc2)ncc1C(F)(F)F)S(C)(=O)=O (stereo not shown) [Compound 247, N-[3-({[2-({4-[(3-hydroxypiperidin-1-yl)carbonyl]phenyl}amino)-5-(trifluoromethyl)pyrimidin-4-yl]amino}methyl)pyridin-2-yl]-N-methylmethane-sulfonamide]	0.63
CN(c1ncccc1CNc1nc(Nc2ccc(C(=O)NCc3ccccn3)cc2)ncc1C(F)(F)F)S(C)(=O)=O [Compound 248, 4-({4-[({2-[methyl(methylsulfonyl)amino]pyridin-3-yl}methyl)amino]-5-(trifluoromethyl)pyrimidin-2-yl}amino)-N-(pyridin-2-ylmethyl)benzamide]	9.35
CN(c1ncccc1CNc1nc(Nc2ccc(C(=O)N3CC[C@@H](O)C3)cc2)ncc1C(F)(F)F)S(C)(=O)=O [Compound 249, N-{3-[({2-[(4-{[(3R)-3-hydroxypyrrolidin-1-yl]carbonyl}phenyl)amino]-5-(trifluoromethyl)pyrimidin-4-yl}amino)methyt]pyridin-2-yl}-N-methylmethane-sulfonamide]	1.91
CN1CCC(NC(=O)c2ccc(Nc3ncc(C(F)(F)F)c(NCc4cccnc4N(C)S(C)(=O)=O)n3)cc2)CC1 [Compound 250, 4-({4-[({2-[methyl(methylsulfonyl)amino]pyridin-3-yl}methyl)amino]-5-(trifluoromethyl)pyrimidin-2-yl}amino)-N-(1-methylpiperidin-4-yl)benzamide]	0.69
CN(C)CCNC(=O)c1ccc(Nc2ncc(C(F)(F)F)c(NCc3cccnc3N(C)S(C)(=O)=O)n2)cc1 [Compound 251, N-[2-(dimethylamino)ethyl]-4-({4-[({2-[methyl(methylsulfonyl)amino]pyridin-3-yl}methyl)amino]-5-(trifluoromethyl)pyrimidin-2-yl}amino)benzamide]	1.21
CN(c1ncccc1CNc1nc(Nc2ccc(C(=O)NCC3CC3)cc2)ncc1C(F)(F)F)S(C)(=O)=O [Compound 252, N-(cyclopropylmethyl)-4-({4-[({2-[methyl(methylsulfonyl)amino}pyridin-3-yl}methyl)amino]-5-(trifluoromethyl)pyrimidin-2-yl}amino)benzamide]	1.48
CN(c1ncccc1CNc1nc(Nc2ccc(C(=O)N3CCC3)cc2)ncc1C(F)(F)F)S(C)(=O)=O [Compound 253, N-[3-({[2-{[4-(azetidin-1 - ylcarbonyl)phenyl]amino}-5-(trifluoromethyl)pyrimidin-4-yl]amino}methyl)pyridin-2-yl]-N-methylmethane-sulfonarriide]	0.6
CN(c1ncccc1CNc1nc(Nc2ccc(C(=O)N3CCNC(=O)C3)cc2)ncc1C(F)(F)F)S(C)(=O)=O [Compound 254, N-methyl-N-[3-({[2-({4-[(3-oxopiperazin-1-yl)carbonyl]phenyl}amino)-5-(trifluoromethyl)pyrimidin-4-yl]amino}methyl)pyridin-2-yl]methanesulfonamide]	1.33
CN(c1ncccc1CNc1nc(Nc2ccc(C(=O)NCCCO)cc2)ncc1C(F)(F)F)S(C)(=O)=O [Compound 255, N-(3-hydroxypropyl)-4-({4-[({2-[methyl(methylsulfonyl)amino]pyridin-3-yl}methyl)amino]-5-(trifluoromethyl)pyrimidin-2-yl}amino)benzamide]	0.82
CN(c1ncccc1CNc1nc(Nc2ccc(C(=O)NCC(C)(C)CO)cc2)ncc1C(F)(F)F)S(C)(=O)=O [Compound 256, N-(3-hydroxy-2,2-dimethylpropyl)-4-({4-[({2-[methyl(methylsulfonyl)amino]pyridin-3-yl}methyl)amino]-5-(trifluoromethyl)pyrimidin-2-yl}amino)benzamide]	1.57
CCC[C@H](CO)NC(=O)c1ccc(Nc2ncc(C(F)(F)F)c(NCc3cccnc3N(C)S(C)(=O)=O)n2)cc1 [Compound 257, N-[(1R)-1-(hydroxymethyl)butyl]-4-({4-[({2-[methyl(methylsulfonyl)amino]pyridin-3-yl}methyl)amino]-5-(trifluoromethyl)pyrimidin-2-yl}amino)benzamide]	5.8
CN(c1ncccc1CNc1nc(Nc2ccc(C(=O)N3CCCCC3)cc2)ncc1C(F)(F)F)S(C)(=O)=O [Compound 258, N-methyl-N-[3-({[2-{[4-(piperidin-1-ylcarbonyl)phenyl]amino}-5-(trifluoromethyl)pyrimidin-4-yl]amino}methyl)pyridin-2-yl]methanesulfonamide]	1.79
CN(C)C(=O)CNC(=O)c1ccc(Nc2ncc(C(F)(F)F)c(NCc3cccnc3N(C)S(C)(=O)=O)n2)cc1 [Compound 259, N-[2-(dimethylamino)-2-oxoethyl]-4-({4-[({2-[methyl(methylsulfonyl)amino]pyridin-3-yl}methyl)amino]-5-(trifluoromethyl)pyrimidin-2-yl}amino)benzamide]	1.57
CN(c1ncccc1CNc1nc(Nc2ccc(C(=O)N3CCC[C@H](O)C3)cc2)ncc1C(F)(F)F)S(C)(=O)=O [Compound 260, N-{3-[({2-[(4-{[(3S)-3-hydroxypiperidin-1-yl]carbonyl}phenyl)amino]-5-(trifluoromethyl)pyrimidin-4-yl}amino)methyl]pyridin-2-yl}-N-methylmethanesulfonamide]	2.3
C[C@H]1COCCN1C(=O)c1ccc(Nc2ncc(C(F)(F)F)c(NCc3cccnc3N(C)S(C)(=O)=O)n2)cc1 [Compound 261, N-methyl-N-{3-[({2-[(4-{[(3S)-3-rnethylmorpholin-4-yl]carbonyl}phenyl)amino]-5-(trifluoromethyl)pyrimidin-4-yl}amino)methyl]pyridin-2-yl}methanesulfonamide]	1.13
CN(C(=O)c1ccc(Nc2ncc(C(F)(F)F)c(NCc3cccnc3N(C)S(C)(=O)=O)n2)cc1)C1CCCC1 [Compound 262, N-cyclopentyl-N-methyl-4-({4-[({2-[methyl(methylsulfonyl)amino]pyridin-3-yl}methyl)amino]-5-(trifluoromethyl)pyrimidin-2-yl}amino)benzamide]	5.8
CN(c1ncccc1CNc1nc(Nc2ccc(C(=O)NC3CCCOC3)cc2)ncc1C(F)(F)F)S(C)(=O)=O (stereo not shown) [Compound 263, 4-({4-(({2-[methyl(methylsulfonyl)amino]pyridin-3-yl}methyl)amino]-5-(trifluoromethyl)pyrimidin-2-yl}amino)-N-(tetrahydro-2H-pyran-3-yl)benzamide]	0.81
CN(c1ncccc1CNc1nc(Nc2ccc(C(=O)NC(CO)CO)cc2)ncc1C(F)(F)F)S(C)(=O)=O [Compound 264, N-[2-hydroxy-1-(hydroxymethyl)ethyl]-4-({4-[({2-[methyl(methylsulfonyl)amino]pyridin-3-yl}methyl)amino]-5-(trifluoromethyl)pyrimidin-2-yl}amino)benzamide]	4.6
CC1CCN(C(=O)c2ccc(Nc3ncc(C(F)(F)F)c(NCc4cccnc4N(C)S(C)(=O)=O)n3)cc2)CC1 [Compound 265, N-methyl-N-[3-({[2-({4-[(4-methylpiperidin-1-yl)carbonyl]phenyl}amino)-5-(trifluoromethyl)pyrimidin-4-yl]amino}methyl)pyridin-2-yl]methanesulfonamide]	0.6
CN(c1ncccc1CNc1nc(Nc2ccc(C(=O)N3CCC(F)(F)C3)cc2)ncc1C(F)(F)F)S(C)(=O)=O [Compound 266, N-[3-({[2-({4-[(3.3-difluoropyrrolidin-1-yl)carbonyl]phenyl}amino)-5-(trifluoromethyl)pyrimidin-4-yl]amino}methyl)pyridin-2-yl]-N-methylmethane-sulfonamide]	0.6
CN(c1ncccc1CNc1nc(Nc2ccc(C(=O)N3CC[C@H](O)C3)cc2)ncc1C(F)(F)F)S(C)(=O)=O [Compound 267, N-{3-[({2-[(4-{[(3S )-3-hydroxypyrrolidin-1-yl]carbonyl}phenyl)amino]-5-(trifluoromethyl)pyrimidin-4-yl}amino)methyl]pyridin-2-yl}-N-methylmethane-sulfonamide]	1.15
CN(c1ncccc1CNc1nc(Nc2ccc(C(=O)N3CCC(C)(O)C3)cc2)ncc1C(F)(F)F)S(C)(=O)=O (stereo not shown) [Compound 268, N-[3-({[2-({4-[(3-hydroxy-3-methylpyrrolidin-1 - yl)carbonyl]phenyl}amino)-5-(trifluoromethyl)pyrimidin-4-yl]amino}methyl)pyridin-2-yl]-N-methylmethane-sulfonamide]	2.62
CCCN(CCO)C(=O)c1ccc(Nc2ncc(C(F)(F)F)c(NCc3cccnc3N(C)S(C)(=O)=O)n2)cc1 [Compound 269, N-(2-hydroxyethyl)-4-({4-[({2-[methyl(methylsulfonyl)amino]pyridin-3-yl}methyl)amino]-5-(trifluoromethyl)pyrimidin-2-yl}amino)-N-propylbenzamide]	8.69
